In ChEMBL document CHEMBL1144600, “Efficient synthesis and biological evaluation of omega-oxygenated analogues of vitamin K2: study of modification and structure-activity relationship of vitamin K2 metabolites” (2007):
Activity calls are given as the source filed them. The rule behind the calls is not given here.

The compounds below were run on HL-60 (assay: Apoptosis inducing activity in human HL60 cells at 10 uM after 74 hrs).
Type: functional
In the case of CC1=C(C/C=C(\C)CC/C=C(\C)CC/C=C(\C)CO)C(=O)c2ccccc2C1=O, the Activity is reported as 75%.
For CC1=C(C/C=C(\C)CC/C=C(\C)CC/C=C(\C)CC/C=C(\C)CO)C(=O)c2ccccc2C1=O, the Activity was 15%.
In the case of CC1=C(C/C=C(\C)CC/C=C(\C)CC/C=C(\C)C=O)C(=O)c2ccccc2C1=O, the Activity is reported as “inactive”.
For CC1=C(C/C=C(\C)CC/C=C(\C)CC/C=C(\C)CC/C=C(\C)C=O)C(=O)c2ccccc2C1=O, the Activity was “inactive”.
CC1=C(C/C=C(\C)CC/C=C(\C)CO)C(=O)c2ccccc2C1=O was tested, and the Activity was “inactive”.
For CC1=C(C/C=C(\C)CC/C=C(\C)C=O)C(=O)c2ccccc2C1=O, the Activity was “inactive”.
